Literature values in patent US8119691B2, “Method for treating airway hyper-responsiveness with lipoxin analogs” (National Institutes of Health (NIH), priority 2001, dated 2012).

Columns and labels:
[1] = target: T1, recombinant cysLT1 receptors (Homo sapiens, UniProt Q9Y271); details: CHO cells, in vitro (ref. 12); cited from earlier work
T1 construct: host or cells: Chinese hamster ovary cells (recombinant expression)
T1 sequence (Q9Y271 1-337): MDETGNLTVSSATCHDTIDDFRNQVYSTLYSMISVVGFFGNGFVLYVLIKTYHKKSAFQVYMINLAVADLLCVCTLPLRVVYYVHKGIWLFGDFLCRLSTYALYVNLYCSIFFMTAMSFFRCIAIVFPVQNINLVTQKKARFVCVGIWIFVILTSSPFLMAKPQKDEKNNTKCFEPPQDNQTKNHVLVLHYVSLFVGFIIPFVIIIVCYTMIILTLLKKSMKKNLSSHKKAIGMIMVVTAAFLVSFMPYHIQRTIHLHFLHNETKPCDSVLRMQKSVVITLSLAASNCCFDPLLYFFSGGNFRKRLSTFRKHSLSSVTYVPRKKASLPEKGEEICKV

human asthmatics = details: native LXA4 given to human asthmatics (ref. 22); cited from earlier work
airway smooth muscle = details: in vitro (ref. 23); cited from earlier work
eosinophil = details: cited from earlier work

CCCCC[C@H](O)/C=C/C=C\C=C\C=C\[C@@H](O)[C@@H](O)CCCC(=O)O [LXA4, Lipoxin A4]
competition for binding at LTD4 recognition sites and recombinant cysLT1 receptors [1]: compete for binding with high affinity at LTD4 recognition sites
LTC4-stimulated airway hyper-responsiveness (human asthmatics): inhibits LTC4-stimulated airway hyper-responsiveness
LTD4-initiated constriction of airway smooth muscle (airway smooth muscle): blocks LTD4-initiated constriction of airway smooth muscle in vitro
eosinophil chemotaxis (eosinophil): directly inhibits eosinophil chemotaxis
